Results as given in patent US20110034434A1, “PRODRUGS OF FUSED HETEROCYCLIC INHIBITORS OF D-AMINO ACID OXIDASE” (SEPRACOR INC., priority 2009, published 2011).

Assays:
D-serine = test: PK-PD evaluation in rats: D-serine levels in cerebellum after oral dosing; assay type: in vivo; settings: rat cerebellum, 6 hours after PO dosing, dose normalized to 10 mg/kg of the acid; mean ± spread (n)
Procedure: Rats (Harlan male Sprague) (N=3) were dosed orally with an amount of test compound, suspended in 45% (w/v) hydroxy-β-cyclodextrin vehicle, dose normalized to 10 mg/kg of the corresponding carboxylic acid. Additional male cannulated rats (N=3) were dosed orally with the parent carboxylic acid, suspended in 45% (w/v) hydroxy-β-cyclodextrin vehicle, at 10 mg/kg. Animals were sacrificed at pre-determined time points (e.g., 0.5, 2 and/or 6 hours post administration) with an N=3 at each time point. At sacrifice, trunk blood was collected into tubes containing potassium EDTA, which were then centrifuged to permit isolation of plasma. The cerebellum was dissected from each animal. Plasma and cerebellum samples were stored at −80° C. until samples were analyzed using a SCIEX API2000 or SCIEX API5000 LC/MS/MS. Samples were analyzed for the amount of corresponding parent acid, D-serine, and/or the amount of test compound.
Conversion of test compounds to 4H-furo[3,2-b]pyrrole-5-carboxylic acid (“acid”; 77) in rats was evaluated according to General Procedure 12. 4H-furo[3,2-b]pyrrole-5-carboxylic acid and D-serine levels in plasma and cerebellum were measured. Animals were sacrificed at 6 hours post administration. In Table 6, “[D-serine] cerebellum” refers to D-serine levels, in nmol/g, in the rat cerebellum. In Table 6, “[acid] cerebellum” refers to the concentration, in μM, of the 4H-furo[3,2-b]pyrrole-5-carboxylic acid in the cerebellum. In Table 6, “[acid] plasma” refers to the concentration, in μM, of the 4H-furo[3,2-b]pyrrole-5-carboxylic acid in the plasma. The row labeled “acid”, denotes the data obtained from dosing 4H-furo[3,2-b]pyrrole-5-carboxylic acid. The row labeled “vehicle” denotes the data obtained from dosing vehicle, and the remaining row in the table denote the data obtained from dosing the test compounds.

[1] = Hydrolysis rate of test compounds in pH 7.4 and 2.0 aqueous solution; assay type: physicochemical; settings: HPLC; for Hydrolysis rate at pH 7.4: 0.05 M sodium phosphate buffer pH 7.4, over 6 hours; for Hydrolysis rate at pH 2.0: water adjusted with phosphoric acid to pH 2.0, over 2 hours
Procedure: 10 mM DMSO solutions of test compounds were diluted with a 0.05 M sodium phosphate buffer (pH 7.4) or water adjusted with phosphoric acid to pH 2.0, with a final concentration of 0.013 mg/mL. Samples were analyzed over either 2 or 6 hours, by HPLC.
The amount of test compound and the corresponding acid were determined. The rate of conversion of the test compound was calculated based on formation of the corresponding acid and loss of parent.
The rate of hydrolysis of test compounds to 4H-furo[3,2-b]pyrrole-5-carboxylic acid was evaluated in pH 7.4 aqueous solution over 6 hours, and in pH 2.0 aqueous solution over 2 hours, according to General Procedure 14.

Compound | [D-serine] cerebellum (D-serine) | Hydrolysis rate at pH 7.4 [1] | Hydrolysis rate at pH 2.0 [1]
CCOC(=O)c1cc2occc2n1COCCOC(=O)C(N)C(C)C (stereo in doubt) [compound 68, (S)-ethyl 4-((2-(2-amino-3-methylbutanoyloxy)ethoxy)methyl)-4H-furo[3,2-b]pyrrole-5-carboxylate] | 5 ± 0.4(3) nmol/g |  | 
CC1(C)OC(=O)c2cc3occc3n21 [compound 2, 11,11-dimethyl-5,10-dioxa-1-azatricyclo[6.3.0.0^2,6]undeca-2(6),3,7-trien-9-one] | 17 ± 1.0(3) nmol/g |  | 
CC1OC(=O)c2cc3occc3n21 (centres unmarked) [compound 3, 11-methyl-5,10-dioxa-1-azatricyclo[6.3.0.0^2,6]undeca-2(6),3,7-trien-9-one] | 17 ± 1.0(3) nmol/g |  | 
CCCOC(=O)c1cc2occc2[nH]1 [compound 4, propyl 4H-furo[3,2-b]pyrrole-5-carboxylate] | 20 ± 1.3(3) nmol/g |  | 
CCCCOC(=O)c1cc2occc2[nH]1 [compound 5, butyl 4H-furo[3,2-b]pyrrole-5-carboxylate] | 18 ± 1.2(3) nmol/g |  | 
CCCCCCCOC(=O)c1cc2occc2[nH]1 [compound 6, heptyl 4H-furo[3,2-b]pyrrole-5-carboxylate] | 18 ± 0.7(3) nmol/g |  | 
CC(C)COC(=O)c1cc2occc2[nH]1 [compound 7, isobutyl 4H-furo[3,2-b]pyrrole-5-carboxylate] | 19 ± 1.5(3) nmol/g |  | 
CC(C)CCCOC(=O)c1cc2occc2[nH]1 [compound 8, 4-methylpentyl 4H-furo[3,2-b]pyrrole-5-carboxylate] | 20 ± 1.5(3) nmol/g |  | 
O=C(OCc1ccccc1)c1cc2occc2[nH]1 [compound 9, benzyl 4H-furo[3,2-b]pyrrole-5-carboxylate] | 21 ± 0.4(3) nmol/g |  | 
O=C(OCC1CCCO1)c1cc2occc2[nH]1 (centres unmarked) [compound 10, (tetrahydrofuran-2-yl)methyl 4H-furo[3,2-b]pyrrole-5-carboxylate] | 19 ± 2.0(6) nmol/g | No hydrolysis | No hydrolysis
O=C(OCC(=O)N1CCC1)c1cc2occc2[nH]1 [compound 19, 2-(azetidin-1-yl)-2-oxoethyl 4H-furo[3,2-b]pyrrole-5-carboxylate] | 17 ± 0.7(3) nmol/g | No hydrolysis | No hydrolysis
CCN(CC)C(=O)COC(=O)c1cc2occc2[nH]1 [compound 23, 2-(diethylamino)-2-oxoethyl 4H-furo[3,2-b]pyrrole-5-carboxylate] | 18 ± 2.3(3) nmol/g |  | 
O=C(OCCn1ccnc1)c1cc2occc2[nH]1 [compound 27, 2-(1H-imidazol-1-yl)ethyl 4H-furo[3,2-b]pyrrole-5-carboxylate] | 17 ± 0.6(3) nmol/g |  | 
O=C(OCn1ccnc1)c1cc2occc2[nH]1 [compound 28, (1H-imidazol-1-yl)methyl 4H-furo[3,2-b]pyrrole-5-carboxylate] | 19 ± 1.9(3) nmol/g |  | 
CN(C)CCOC(=O)c1cc2occc2[nH]1 [compound 32, 2-(dimethylamino)ethyl 4H-furo[3,2-b]pyrrole-5-carboxylate] | 9 ± 0.7(3) nmol/g |  | 
CC(=O)OC(C)OC(=O)c1cc2occc2[nH]1 (centres unmarked) [compound 33, 1-acetoxyethyl 4H-furo[3,2-b]pyrrole-5-carboxylate] | 19 ± 1.4(3) nmol/g |  | 
CCC(=O)OC(C)OC(=O)c1cc2occc2[nH]1 (centres unmarked) [compound 34, 1-(propionyloxy)ethyl 4H-furo[3,2-b]pyrrole-5-carboxylate] | 20 ± 1.7(3) nmol/g |  | 
CC(C)OC(=O)OC(C)OC(=O)c1cc2occc2[nH]1 (centres unmarked) [compound 36, 1-(isopropoxycarbonyloxy)ethyl 4H-furo[3,2-b]pyrrole-5-carboxylate] | 20 ± 2.9(6) nmol/g |  | 
CC(OC(=O)OC(C)(C)C)OC(=O)c1cc2occc2[nH]1 (centres unmarked) [compound 37, 1-(tert-butoxycarbonyloxy)ethyl 4H-furo[3,2-b]pyrrole-5-carboxylate] | 18 ± 1.1(3) nmol/g |  | 
CC(=O)OCOC(=O)c1cc2occc2[nH]1 [compound 38, acetoxymethyl 4H-furo[3,2-b]pyrrole-5-carboxylate] | 19 ± 4.4(4) nmol/g |  | 

Compound | [D-serine] cerebellum (D-serine) | Hydrolysis rate at pH 7.4 [1] | Hydrolysis rate at pH 2.0 [1]
CC(=O)OC(OC(=O)c1cc2occc2[nH]1)C(C)C (centres unmarked) [compound 40, 1-acetoxy-2-methylpropyl 4H-furo[3,2-b]pyrrole-5-carboxylate] | 22 ± 2.7(3) nmol/g |  | 
O=C(OCOC(=O)c1cc2occc2[nH]1)c1cc2occc2[nH]1 [compound 41, methylene bis(4H-furo[3,2-b]pyrrole-5-carboxylate)] | 14 ± 0.2(3) nmol/g |  | 
CCC(=O)OCOC(=O)c1cc2occc2[nH]1 [compound 42, propionyloxymethyl 4H-furo[3,2-b]pyrrole-5-carboxylate] | 20 ± 1.5(3) nmol/g |  | 
CCCC(=O)OC(C)OC(=O)c1cc2occc2[nH]1 (centres unmarked) [compound 44, 1-(butyryloxy)ethyl 4H-furo[3,2-b]pyrrole-5-carboxylate] | 21 ± 1.3(3) nmol/g |  | 
CCC(OC(C)=O)OC(=O)c1cc2occc2[nH]1 (centres unmarked) [compound 45, 1-acetoxypropyl 4H-furo[3,2-b]pyrrole-5-carboxylate] | 22 ± 1.9(3) nmol/g |  | 
CC(C)C(=O)OCOC(=O)c1cc2occc2[nH]1 [compound 47, isobutyryloxymethyl 4H-furo[3,2-b]pyrrole-5-carboxylate] | 22 ± 3.0(3) nmol/g |  | 
O=C(OCCOC(=O)c1cc2occc2[nH]1)c1cc2occc2[nH]1 [compound 55, ethane-1,2-diyl bis(4H-furo[3,2-b]pyrrole-5-carboxylate)] | 13 ± 1.1(3) nmol/g |  | 
NC(=O)c1cc2occc2[nH]1 [compound 56, 4H-furo[3,2-b]pyrrole-5-carboxamide] | 7 ± 0.7(2) nmol/g |  | 
NC(=O)CNC(=O)c1cc2occc2[nH]1 [compound 57, N-(2-amino-2-oxoethyl)-4H-furo[3,2-b]pyrrole-5-carboxamide] | 5 ± 0.5(3) nmol/g |  | 
CN1CCN(C(=O)c2cc3occc3[nH]2)CC1 [compound 58, (4H-furo[3,2-b]pyrrol-5-yl)(4-methylpiperazin-1-yl)methanone] | 5 ± 0.3(3) nmol/g |  | 
CCOC(=O)c1cc2occc2n1COC(=O)c1ccccc1 [compound 59, ethyl 4-(benzoyloxymethyl)-4H-furo[3,2-b]pyrrole-5-carboxylate] | 11 ± 1.9(3) nmol/g |  | 
O=C(OCn1c(C(=O)O)cc2occc21)c1ccccc1 [compound 60, 4-(benzoyloxymethyl)-4H-furo[3,2-b]pyrrole-5-carboxylic acid] | 13 ± 1.1(3) nmol/g |  | 
CCOC(=O)c1cc2occc2n1COC(C)=O [compound 64, ethyl 4-(acetoxymethyl)-4H-furo[3,2-b]pyrrole-5-carboxylate] | 14 ± 3.6(3) nmol/g |  | 
CCOC(=O)c1cc2occc2n1COC(=O)C(C)C [compound 65, ethyl 4-(isobutyryloxymethyl)-4H-furo[3,2-b]pyrrole-5-carboxylate] | 11 ± 2.6(3) nmol/g |  | 
CC(=O)OCn1c(C(=O)O)cc2occc21 [compound 66, 4-(acetoxymethyl)-4H-furo[3,2-b]pyrrole-5-carboxylic acid] | 12 ± 0.7(3) nmol/g |  | 
CC(C)C(=O)OCn1c(C(=O)O)cc2occc21 [compound 67, 4-(isobutyryloxymethyl)-4H-furo[3,2-b]pyrrole-5-carboxylic acid] | 14 ± 0.9(3) nmol/g |  | 
CC(=O)OCOC(=O)c1cc2occc2n1COC(C)=O [compound 71, acetoxymethyl 4-(acetoxymethyl)-4H-furo[3,2-b]pyrrole-5-carboxylate] | 14 ± 0.9(3) nmol/g |  | 
O=C1OCC(OC(=O)c2cc3occc3[nH]2)O1 (centres unmarked) [compound 73, 2-oxo-1,3-dioxolan-4-yl 4H-furo[3,2-b]pyrrole-5-carboxylate] | 24 ± 2.0(2) nmol/g |  | 
O=C(OC1OC(=O)c2ccccc21)c1cc2occc2[nH]1 (centres unmarked) [compound 74, 3-oxo-1,3-dihydroisobenzofuran-1-yl 4H-furo[3,2-b]pyrrole-5-carboxylate] | 13 ± 1.2(3) nmol/g |  | 
O=C(OCCl)c1cc2occc2[nH]1 [compound 76, chloromethyl 4H-furo[3,2-b]pyrrole-5-carboxylate] | 12 ± 1.5(3) nmol/g |  | 
